What was measured:
[1] = in vivo; format: in vivo; conditions: cat, in vivo, po; cats; similar diet with corresponding quantity of all four isomers
From the text: (§1) The compositions and methods of the invention may be successfully used to control rodents whilst minimising the hazard to non-target species as compared with the use of known compositions. […] This illustrates the improved safety of the invention compositions in the case of accidental ingestion of rodenticide bait by a non-target species.

[2] = test system: cats; assay: in vivo; format: in vivo; conditions: diet simulating contaminated carcase
From the text: as §1

[3] = Selective depuration of isomer pairs from vole tissue, Example 4; format: in vivo, meadow voles (Microtus penusylvanicus); conditions: for Amount of isomer pair recovered from the tissue / concentration at 24 h / concentration at 48 h / concentration at 72 h / concentration at 96 h / concentration at 120 h: 10 ppm pellets, 0.54 mg/kg of A-D mixture consumed; for half-life / concentration at 24 h / concentration at 48 h / concentration at 72 h / concentration at 96 h / concentration at 120 h: po; for half-life: 0.54 mg/kg, calculated; for half-life / depuration: vole tissue; for depuration: in words; for concentration at 24 h / concentration at 48 h / concentration at 72 h / concentration at 96 h / concentration at 120 h: vole, tissue, read-out: Amount of isomer pair recovered from the tissue; for Ratio: isomers C and D to isomers A and B
Method: This Example illustrates the selective depuration of the active ingredient of the invention compositions by meadow voles (Microtus penusylvanicus).
Fasted wild voles were given pellets containing 10 ppm of mixture (approximately 1:1:1:1 by weight) of isomers A, B, C and D of brodifacoum until they had consumed 0.54 mg of active ingredient per kilogram of body weight. Voles were killed at 0, 1, 2, 3, 4, 5 and 14 days after dosing and the relative amounts of the A, B isomer pair and the C, D isomer pair remain in the vole tissue determined by chromatographic means.

[4] = Analysis of relative proportions of cis and trans isomers in carcasses of target and non-target species; format: in vivo, foxes, cats, hawks, owls and crows; conditions: mixed isomers dosed
From the text: We have now discovered that although there is little to choose between the isomers in terms of their rodenticidal effectiveness there is a significant difference in their persistence in the tissues of nonrodent non-target species which may be exposed to accidental ingestion of brodifacoum.
Species in which this selective depuration has been noted include scavanging and preditor mammals such as foxes and cats, and birds such as hawks, owls and crows. Thus if non-target species such as these consume the carcasses of rodents which have been killed by the use of the invention compositions they will be able to metabolise the residues of the active ingredient and not be at risk through bioaccumulation of a toxic dose by subsequently consuming further contaminated carcasses.

[5] = test system: pheasants (Phasianus colchicus); format: in vivo; conditions: pheasants fed pelleted formulations; vs mixture of all four isomers (approximately 1:1:1:1)
From the text: as §1

O=c1oc2ccccc2c(O)c1C1CC(c2ccc(-c3ccc(Br)cc3)cc2)Cc2ccccc21 (stereo not drawn) [all four brodifacoum isomers, reference compound]
mortality [1]: 100% | prothrombin time [2]: increased prothrombin times which did not return to normal

O=c1oc2ccccc2c(O)c1[C@H]1C[C@@H](c2ccc(-c3ccc(Br)cc3)cc2)Cc2ccccc21 (relative stereo) [Isomers A and B, reference compound]
Amount of isomer pair recovered from the tissue ([3]; 0 days after dosing): 0.15 mg/kg | half-life [3]: > 20200 min | depuration [3]: retained in the tissue | concentration at 24 h ([3]; 1 day after dosing): 147 ng/g | concentration at 48 h ([3]; 2 days after dosing): 114 ng/g | concentration at 72 h ([3]; 3 days after dosing): 114 ng/g | concentration at 96 h ([3]; 4 days after dosing): 123 ng/g | concentration at 120 h ([3]; 5 days after dosing): 101 ng/g | selective depuration / metabolism [4]: not metabolised at a sufficient rate to avoid the lethal consequences | selective depuration / metabolism ([4]; listed as cis isomer): relatively metabolically more stable

O=c1oc2ccccc2c(O)c1[C@@H]1C[C@@H](c2ccc(-c3ccc(Br)cc3)cc2)Cc2ccccc21 (relative stereo) [Isomers C and D]
Amount of isomer pair recovered from the tissue ([3]; 0 days after dosing): 0.122 mg/kg | Ratio ([3]; 0 days after dosing): 0.818 | Ratio ([3]; 1 day after dosing): 0.354 | Ratio ([3]; 2 days after dosing): 0.211 | Ratio ([3]; 3 days after dosing): 0.123 | Ratio ([3]; 4 days after dosing): 0.089 | Ratio ([3]; 5 days after dosing): 0.05 | half-life [3]: ~1440 min | depuration [3]: rapid depuration | concentration at 24 h ([3]; 1 day after dosing): 52 ng/g | concentration at 48 h ([3]; 2 days after dosing): 24 ng/g | concentration at 72 h ([3]; 3 days after dosing): 14 ng/g | concentration at 96 h ([3]; 4 days after dosing): 11 ng/g | concentration at 120 h ([3]; 5 days after dosing): 5 ng/g | survival rate [5]: much higher survival rate | prothrombin time [2]: temporary increase in prothrombin time which returned to normal after a short period | mortality ([2]; in words): no mortality | selective depuration / metabolism ([4]; listed as isomers C and D of brodifacoum): rapid depuration | selective depuration / metabolism ([4]; listed as trans isomer): selective metabolism of most or all of the trans isomer

From patent US4783481A, “Rodenticides” (priority 1983, dated 1988)
